Experimental data as given in US20240360114A1 (SIRONAX LTD., priority 2021, published 2024).

System: HT-1080 cells
Test: HT-1080 cell viability assay (ferroptosis induced by RSL3, Cell Titer-Glo)
Type: cell-based
Settings: Homo sapiens, HT-1080, 20 h, ferroptosis inducer RSL3, 20 hours, ferroptosis inhibitory activity, Table 2
Summary of the method: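 Cells seeded overnight, then co-treated with RSL3 and compound (3-fold, 10-point dilution, top 1.1 μM) for 20 hours. Viability by CellTiter-Glo luminescence, normalized to untreated controls; EC50 from sigmoidal non-linear regression.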

Row | SMILES | EC50
1 | Cc1nc(N2CCC(C(F)(F)F)CC2)ccc1NC1CC2(CC(N)C2)C1 (stereo not drawn) [Compound 376, N2-(2-methyl-6-(4-(trifluoromethyl)piperidin-1-yl)pyridin-3-yl) spiro[3.3]heptane-2,6-diamine] | 0.1 to 100 nM
2 | Cc1nc(N2CCC(C(F)(F)F)CC2)ccc1NC1CCC(CNC(=O)C2CNC(=O)C2)CC1 (stereo not drawn) [Compound 377, N-((4-((2-methyl-6-(4-(trifluoromethyl)piperidin-1-yl)pyridin-3-yl)amino)cyclohexyl)methyl)-5-oxopyrrolidine-3-carboxamide] | 0.1 to 100 nM
3 | Cc1nc(N2CCC(C(F)(F)F)CC2)ccc1NC[C@H]1CC[C@H](NC(=O)C2CNC(=O)C2)CC1 (stereo partly drawn) [Compound 378, N-((1r,4r)-4-(((2-methyl-6-(4-(trifluoromethyl)piperidin-1-yl)pyridin-3-yl)amino)methyl)cyclohexyl)-5-oxopyrrolidine-3-carboxamide] | 0.1 to 100 nM
4 | Cc1cc(N2CCCCC2)ccc1NC[C@H]1CC[C@H](N)CC1 [Compound 379, N-(((1r,4r)-4-aminocyclohexyl)methyl)-2-methyl-4-(piperidin-1-yl)aniline] | 0.1 to 100 nM
5 | Cc1cc(N2CCCCC2)ccc1NC1CC2(CC(N)C2)C1 (stereo not drawn) [Compound 380, N2-(2-methyl-4-(piperidin-1-yl)phenyl)spiro[3.3]heptane-2,6-diamine] | 0.1 to 100 nM
6 | Cc1cc(N2CCC(C)(C)CC2)ccc1NC1CCC(N)CC1 (stereo not drawn) [Compound 381, N1-(4-(4,4-dimethylpiperidin-1-yl)-2-methylphenyl)cyclohexane-1,4-diamine] | 0.1 to 100 nM
7 | Cc1cc(N2CCC(C)(C)CC2)ccc1NC[C@H]1CC[C@H](N)CC1 [Compound 382, N-(((1r,4r)-4-aminocyclohexyl)methyl)-4-(4,4-dimethylpiperidin-1-yl)-2-methylaniline] | 0.1 to 100 nM
8 | Cc1cc(N2CCC(C(F)(F)F)CC2)ccc1NCC[C@H]1CC[C@H](N)CC1 [Compound 383, N-(2-((1r,4r)-4-aminocyclohexyl)ethyl)-2-methyl-4-(4-(trifluoromethyl)piperidin-1-yl)aniline] | 0.1 to 100 nM
9 | NC1CCC(Nc2cccc(N3CCC(C(F)(F)F)CC3)c2)CC1 (stereo not drawn) [Compound 384, N1-(3-(4-(trifluoromethyl)piperidin-1-yl)phenyl)cyclohexane-1,4-diamine] | 100 to 1000 nM
10 | CCN(CCCOC)c1ccc(NC[C@H]2CC[C@H](N)CC2)cc1 [Compound 385, N1-(((1r,4r)-4-aminocyclohexyl)methyl)-N4-ethyl-N4-(3-methoxypropyl) benzene-1,4-diamine] | 100 to 1000 nM
11 | CCCCCN(CC)c1ccc(NC[C@H]2CC[C@H](N)CC2)cc1 [Compound 386, N1-(((1r,4r)-4-aminocyclohexyl)methyl)-N4-ethyl-N4-pentylbenzene-1,4-diamine] | 0.1 to 100 nM
12 | Cc1cc(N2CC(C)OC(C)C2)ccc1NC[C@H]1CC[C@H](N)CC1 (stereo partly drawn) [Compound 387, N-(((1r,4r)-4-aminocyclohexyl)methyl)-4-(2,6-dimethylmorpholino)-2-methylaniline] | 0.1 to 100 nM
13 | CC(C)C1CCN(c2ncc(NC3C4CC5CC3CC(C(N)=O)(C5)C4)cn2)CC1 (stereo not drawn) [Compound 388, 4-((2-(4-isopropylpiperidin-1-yl)pyrimidin-5-yl)amino)adamantane-1-carboxamide] | 0.1 to 100 nM
14 | CCC1CCN(c2ccc(NC[C@H]3CC[C@H](N)CC3)c(C)c2)CC1 [Compound 389, N-(((1r,4r)-4-aminocyclohexyl)methyl)-4-(4-ethylpiperidin-1-yl)-2-methylaniline] | 0.1 to 100 nM
15 | CCC1CCN(c2ccc(NC3CCC(N)CC3)c(C)c2)CC1 (stereo not drawn) [Compound 390, N1-(4-(4-ethylpiperidin-1-yl)-2-methylphenyl)cyclohexane-1,4-diamine] | 0.1 to 100 nM
16 | Cc1cc(N2CCC(C(F)(F)F)CC2)cc(C)c1NCC[C@H]1CC[C@H](N)CC1 [Compound 391, N-(2-((1r,4r)-4-aminocyclohexyl)ethyl)-2,6-dimethyl-4-(4-(trifluoromethyl)piperidin-1-yl) aniline] | 0.1 to 100 nM
17 | Cc1cc(N2CCCCC2)ccc1NC1C[C@H]2CC(N)C[C@H]2C1 (stereo partly drawn) [Compound 392, (3aR,6aS)-N2-(2-methyl-4-(piperidin-1-yl)phenyl) octahydropentalene-2,5-diamine] | 0.1 to 100 nM
18 | Cc1cc(N(C)C)ccc1NC[C@H]1CC[C@H](N)CC1 [Compound 393, N^1-(((1r,4r)-4-aminocyclohexyl)methyl)-N4,N4,2-trimethylbenzene-1,4-diamine] | 0.1 to 100 nM
19 | N[C@H]1CC[C@H](CCNc2ccc(N3CCC(C(F)(F)F)CC3)cc2F)CC1 [Compound 394, N-(2-((1r, 4r)-4-aminocyclohexyl)ethyl)-2-fluoro-4-(4-(trifluoromethyl)piperidin-1-yl)aniline] | 0.1 to 100 nM
20 | N[C@H]1CC[C@H](CNc2ccc(N3CCC(C(F)(F)F)CC3)nc2F)CC1 [Compound 395, N-(((1r, 4r)-4-aminocyclohexyl)methyl)-2-fluoro-6-(4-(trifluoromethyl)piperidin-1-yl)pyridin-3-amine] | 0.1 to 100 nM
21 | CC1CCN(c2ncc(NC[C@H]3CC[C@H](N)CC3)cc2C(F)(F)F)CC1 [Compound 396, N-(((1r,4r)-4-aminocyclohexyl)methyl)-6-(4-methylpiperidin-1-yl)-5-(trifluoromethyl)pyridin-3-amine] | 0.1 to 100 nM
22 | NC1CC2(C1)CC(Nc1ccc(N3CCC(C(F)(F)F)CC3)nc1)C2 (stereo not drawn) [Compound 397, N2-(6-(4-(trifluoromethyl)piperidin-1-yl)pyridin-3-yl)spiro[3.3]heptane-2,6-diamine] | 0.1 to 100 nM
23 | N[C@H]1CC[C@H](CNc2ccc(N3CCC(C(F)(F)F)CC3)nc2)CC1 [Compound 398, N-(((1r,4r)-4-aminocyclohexyl)methyl)-6-(4-(trifluoromethyl)piperidin-1-yl)pyridin-3-amine] | 0.1 to 100 nM
24 | CC(C)C1CCN(c2cnc(NC3CCC(N)CC3)cn2)CC1 (stereo not drawn) [Compound 399, N1-(5-(4-isopropylpiperidin-1-yl)pyrazin-2-yl)cyclohexane-1,4-diamine] | 0.1 to 100 nM
25 | CC(C)C1CCN(c2cnc(NC3CCC(N)CC3)nc2)CC1 (stereo not drawn) [Compound 400, N1-(5-(4-isopropylpiperidin-1-yl)pyrimidin-2-yl)cyclohexane-1,4-diamine] | 1000 to 10000 nM
26 | CC(C)C1CCN(c2ncc(NC3C[C@H]4CC(NO)C[C@H]4C3)cn2)CC1 (stereo partly drawn) [Compound 401, N-((3aR, 6aS)-5-(hydroxyamino)octahydropentalen-2-yl)-2-(4-isopropylpiperidin-1-yl) pyrimidin-5-amine] | 0.1 to 100 nM
27 | NC1CCCCC1Nc1ccc(N2CCC(C(F)(F)F)CC2)cc1 (stereo not drawn) [Compound 402, N1-(4-(4-(trifluoromethyl)piperidin-1-yl)phenyl)cyclohexane-1,2-diamine] | 0.1 to 100 nM
28 | CC(C)C1CCN(c2ncc(NC3CC4(CC(NC(=O)C(N)=O)C4)C3)cn2)CC1 (stereo not drawn) [Compound 403, N1-(6-((2-(4-isopropylpiperidin-1-yl)pyrimidin-5-yl)amino)spiro[3.3]heptan-2-yl)oxalamide] | 0.1 to 100 nM
29 | CC(C)C1CCN(c2ncc(NC3CCC(C(N)=O)CC3)cn2)CC1 (stereo not drawn) [Compound 404, 4-((2-(4-isopropylpiperidin-1-yl)pyrimidin-5-yl)amino)cyclohexane-1-carboxamide] | 0.1 to 100 nM
30 | CC1CCN(c2ncc(NC3C4CC5CC3CC(C(N)=O)(C5)C4)cn2)CC1 (stereo not drawn) [Compound 405, 4-((2-(4-methylpiperidin-1-yl)pyrimidin-5-yl)amino)adamantane-1-carboxamide] | 0.1 to 100 nM
